Data reported in patent publication US9980943B2, “Methods of treating muscular dystrophy” (BOARD OF REGENTS OF THE NEVADA SYSTEM OF HIGHER EDUCATION, …, priority 2013, dated 2018).

What was measured:
Assay type in all cases: cell-based, mouse
[1] = tested on: α7 integrin (LacZ reporter in α7βgal+/− myoblasts); assay: Myoblast α7+/LacZ integrin FDG assay (Burkin assay in myoblasts, 96-well); details: 96-well; for Burkin Assay in Myoblasts, signal relative to DMSO: α7+/LacZ myoblasts; for Burkin Assay in Myoblasts, value relative to DMSO: SU9516 analogs, N=3-6
[2] = tested on: α7 integrin (LacZ reporter in α7+/LacZ myotubes); assay: Myotube α7 integrin FDG assay (Burkin assay in myotubes, 96-well); details: for Burkin Assay in Myotubes, value relative to DMSO: SU9516 analogs, 96-well, N=3-6
[3] = tested on: β-galactosidase in CMV-LacZ C2C12 myoblasts; assay: CMV-LacZ secondary screen in C2C12 myoblasts (β-Gal stabilizing assay); details: for CMV-LACZ in Myoblasts (β-galactosidase activity relative to DMSO): CMV-LacZ C2C12 myoblasts; for CMV-LACZ in Myoblasts, value relative to DMSO: SU9516 analogs, C2C12 CMV-LacZ, N=2
In short: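 β-Gal level was the read-out, measured in a clonal C2C12 line expressing LacZ from a CMV promoter. Dose-response curves used six concentrations, 0.5 μM up to 40 μM, with duplicate points.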

[4] = tested on: β-galactosidase in CMV-LacZ C2C12 myotubes; assay: CMV-LacZ secondary screen in C2C12 myotubes (β-Gal stabilizing assay); details: for CMV-LACZ in Myotubes, signal relative to DMSO: C2C12 CMV-LacZ myotubes, fold relative to DMSO; for CMV-LACZ in Myotubes, value relative to DMSO: SU9516 analogs, C2C12 CMV-LacZ, N=2
In short: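 CMV-LacZ C2C12 line (clonal, FDG-screened); myoblasts/myotubes dosed 0.5–40 μM (0.5, 1, 5, 10, 20, 40 μM); n=2 per point; β-gal stabilization read-out.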

## Cc1ccccc1NC(=O)NCCCN1CCN(C)CC1 [MLS001197665-01]
[1]; 0.5 uM
  Burkin Assay in Myoblasts, signal relative to DMSO: 1.062
[1]; 1 uM
  Burkin Assay in Myoblasts, signal relative to DMSO: 1.069
[1]; 5 uM
  Burkin Assay in Myoblasts, signal relative to DMSO: 1.015
[1]; 10 uM
  Burkin Assay in Myoblasts, signal relative to DMSO: 0.9523
[1]; 20 uM
  Burkin Assay in Myoblasts, signal relative to DMSO: 1.094
[1]; 40 uM
  Burkin Assay in Myoblasts, signal relative to DMSO: 1.189
[2]; 0.5 uM
  Burkin Assay in Myotubes, α7 integrin LacZ reporter signal relative to DMSO: 1.115
[2]; 1 uM
  Burkin Assay in Myotubes, α7 integrin LacZ reporter signal relative to DMSO: 1.068
[2]; 5 uM
  Burkin Assay in Myotubes, α7 integrin LacZ reporter signal relative to DMSO: 0.973
[2]; 10 uM
  Burkin Assay in Myotubes, α7 integrin LacZ reporter signal relative to DMSO: 0.999
[2]; 20 uM
  Burkin Assay in Myotubes, α7 integrin LacZ reporter signal relative to DMSO: 1.001
[2]; 40 uM
  Burkin Assay in Myotubes, α7 integrin LacZ reporter signal relative to DMSO: 0.9583
[3]; 0.5 uM
  CMV-LACZ in Myoblasts (β-galactosidase activity relative to DMSO): 0.8584
[3]; 1 uM
  CMV-LACZ in Myoblasts (β-galactosidase activity relative to DMSO): 0.8347
[3]; 5 uM
  CMV-LACZ in Myoblasts (β-galactosidase activity relative to DMSO): 0.9214
[3]; 10 uM
  CMV-LACZ in Myoblasts (β-galactosidase activity relative to DMSO): 0.8403
[3]; 20 uM
  CMV-LACZ in Myoblasts (β-galactosidase activity relative to DMSO): 0.9556
[3]; 40 uM
  CMV-LACZ in Myoblasts (β-galactosidase activity relative to DMSO): 1.0267
[4]; 0.5 uM
  CMV-LACZ in Myotubes, signal relative to DMSO: 0.9415
[4]; 1 uM
  CMV-LACZ in Myotubes, signal relative to DMSO: 0.8756
[4]; 5 uM
  CMV-LACZ in Myotubes, signal relative to DMSO: 0.9771
[4]; 10 uM
  CMV-LACZ in Myotubes, signal relative to DMSO: 1.2593
[4]; 20 uM
  CMV-LACZ in Myotubes, signal relative to DMSO: 1.0047
[4]; 40 uM
  CMV-LACZ in Myotubes, signal relative to DMSO: 1.0741

## CC(=O)C1=C(C)Nc2ncnn2C1c1ccc(C)cc1 (stereo not drawn) [MLS001197779-01]
[1]; 0.5 uM
  Burkin Assay in Myoblasts, signal relative to DMSO: 0.9161
[1]; 1 uM
  Burkin Assay in Myoblasts, signal relative to DMSO: 1.0032
[1]; 5 uM
  Burkin Assay in Myoblasts, signal relative to DMSO: 1.281
[1]; 10 uM
  Burkin Assay in Myoblasts, signal relative to DMSO: 0.9869
[1]; 20 uM
  Burkin Assay in Myoblasts, signal relative to DMSO: 0.8467
[1]; 40 uM
  Burkin Assay in Myoblasts, signal relative to DMSO: 0.753
[2]; 0.5 uM
  Burkin Assay in Myotubes, α7 integrin LacZ reporter signal relative to DMSO: 1.038
[2]; 1 uM
  Burkin Assay in Myotubes, α7 integrin LacZ reporter signal relative to DMSO: 0.961
[2]; 5 uM
  Burkin Assay in Myotubes, α7 integrin LacZ reporter signal relative to DMSO: 1.102
[2]; 10 uM
  Burkin Assay in Myotubes, α7 integrin LacZ reporter signal relative to DMSO: 0.9249
[2]; 20 uM
  Burkin Assay in Myotubes, α7 integrin LacZ reporter signal relative to DMSO: 0.8237
[2]; 40 uM
  Burkin Assay in Myotubes, α7 integrin LacZ reporter signal relative to DMSO: 0.913
[3]; 0.5 uM
  CMV-LACZ in Myoblasts (β-galactosidase activity relative to DMSO): 0.8987
[3]; 1 uM
  CMV-LACZ in Myoblasts (β-galactosidase activity relative to DMSO): 1.2563
[3]; 5 uM
  CMV-LACZ in Myoblasts (β-galactosidase activity relative to DMSO): 0.7604
[3]; 10 uM
  CMV-LACZ in Myoblasts (β-galactosidase activity relative to DMSO): 0.6490
[3]; 20 uM
  CMV-LACZ in Myoblasts (β-galactosidase activity relative to DMSO): 0.9846
[3]; 40 uM
  CMV-LACZ in Myoblasts (β-galactosidase activity relative to DMSO): 1.1267
[4]; 0.5 uM
  CMV-LACZ in Myotubes, signal relative to DMSO: 1.1286
[4]; 1 uM
  CMV-LACZ in Myotubes, signal relative to DMSO: 1.1705
[4]; 5 uM
  CMV-LACZ in Myotubes, signal relative to DMSO: 1.0456
[4]; 10 uM
  CMV-LACZ in Myotubes, signal relative to DMSO: 1.0983
[4]; 20 uM
  CMV-LACZ in Myotubes, signal relative to DMSO: 1.0630
[4]; 40 uM
  CMV-LACZ in Myotubes, signal relative to DMSO: 1.0540

## Cc1ccccc1/C=C1\C(=O)Nc2ccc(F)cc21 [MLS001197838-01]
[1]; 0.5 uM
  Burkin Assay in Myoblasts, value relative to DMSO: 1.256
[1]; 1 uM
  Burkin Assay in Myoblasts, value relative to DMSO: 1.198
[1]; 5 uM
  Burkin Assay in Myoblasts, value relative to DMSO: 1.053
[1]; 10 uM
  Burkin Assay in Myoblasts, value relative to DMSO: 1.048
[1]; 20 uM
  Burkin Assay in Myoblasts, value relative to DMSO: 0.8911
[1]; 40 uM
  Burkin Assay in Myoblasts, value relative to DMSO: 0.8648
[2]; 0.5 uM
  Burkin Assay in Myotubes, value relative to DMSO: 1.009
[2]; 1 uM
  Burkin Assay in Myotubes, value relative to DMSO: 0.981
[2]; 5 uM
  Burkin Assay in Myotubes, value relative to DMSO: 1.004
[2]; 10 uM
  Burkin Assay in Myotubes, value relative to DMSO: 1.091
[2]; 20 uM
  Burkin Assay in Myotubes, value relative to DMSO: 0.8699
[2]; 40 uM
  Burkin Assay in Myotubes, value relative to DMSO: 0.9981
[3]; 0.5 uM
  CMV-LACZ in Myoblasts, value relative to DMSO: 0.7904
[3]; 1 uM
  CMV-LACZ in Myoblasts, value relative to DMSO: 0.9954
[3]; 5 uM
  CMV-LACZ in Myoblasts, value relative to DMSO: 1.0010
[3]; 10 uM
  CMV-LACZ in Myoblasts, value relative to DMSO: 1.1118
[3]; 20 uM
  CMV-LACZ in Myoblasts, value relative to DMSO: 1.1615
[3]; 40 uM
  CMV-LACZ in Myoblasts, value relative to DMSO: 0.9437
[4]; 0.5 uM
  CMV-LACZ in Myotubes, value relative to DMSO: 1.0305
[4]; 1 uM
  CMV-LACZ in Myotubes, value relative to DMSO: 1.0038
[4]; 5 uM
  CMV-LACZ in Myotubes, value relative to DMSO: 0.9701
[4]; 10 uM
  CMV-LACZ in Myotubes, value relative to DMSO: 1.1637
[4]; 20 uM
  CMV-LACZ in Myotubes, value relative to DMSO: 0.8547
[4]; 40 uM
  CMV-LACZ in Myotubes, value relative to DMSO: 1.0063
